# Measured values from PMC7570852, “Ruthenium(II)/(III) DMSO-Based Complexes of 2-Aminophenyl Benzimidazole with In Vitro and In Vivo Anticancer Activity” (Molecules, 2020).
# Marks after values point to notes of the source that are not given here.
# Legend:
# Cyclic voltammetry = type: physicochemical; conditions: 10^−3 M in CH2Cl2/DMSO, 0.1 M (Bu4N)PF6, scan rate 50 mVs^−1
# Description: Elemental analyses (C, H, N) were performed by the Microanalysis unit in the Department of Chemistry at Simon Fraser University. Infrared spectra (FTIR) were performed on a JASCO 4100 FTIR spectrophotometer in the 4000–400 cm^−1 range using a KBr disc. NMR (^1H and ^13C) spectra were recorded in DMSO-d6 solvent using a Bruker 400 MHz instrument. The 2D NMR analysis (^1H–^1H COSY) was performed on a Jeol 500 MHz NMR, at Mansoura University. ESI/APCI HRMS data were acquired on a Thermo Scientific Exactive Plus Orbitrap mass spectrometer. Electronic spectra (in DMSO, 200–900 nm) were measured on a JASCO 630 V spectrophotometer. Emission spectra of the complexes were measured on a Jenway model 6285 spectrofluorimeter for excitation and emission spectra, 200–700 nm. The magnetic susceptibility of the complexes was measured on a Johnson Matthey magnetic susceptibility balance. […] A microplate reader (StatFax-2100, Awareness Technology, Inc., Palm City, FA, USA), Attune flow cytometer (Applied Biosystems, Foster City, CA, USA), Quawell nanodrop Q5000 (San Jose, CA, USA), StepOnePlus real time PCR system (Applied Biosystems, Foster City, CA, USA), and CO2 incubator (NuAire In-Vitro Cell, Plymouth, MN, USA) were used in biological studies.
# [1] = Maximum tolerated dose in healthy mice; type: in vivo
# Description: These mice were examined daily for any sign of toxicity and weighed every two days. […] Therefore, doses of 6, 12, and 18 mg/kg were used in subsequent experiments.
# Caco2 cells = assay: DNA fragmentation (agarose gel), Caco2; type: cell-based, human; conditions: Caco2, 117.6 µg/mL, 4 h
# Description: MCF7 and Caco2 cells were collected and genomic DNA was extracted using a Gene JET genomic DNA extraction kit following the manufacturer’s protocol (Thermo Scientific, #K0721). The extracted DNA samples were run on a 1.5% agarose gel at 50 V for 2 h and the fragment pattern was visualized by ethidium bromide staining under a UV transilluminator.
# [2] = test system: Ehrlich ascites carcinoma (EAC); assay: Serum liver and kidney function tests, EAC-bearing mice; type: in vivo; conditions: mean ± SEM
# Description: (§1) The mice were divided into the following eight groups (10 mice in each group): • Control group: Mice were intraperitoneally injected with a vehicle (2% DMSO + sterile saline) for 12 days. • I, II, and III control groups: Healthy normal mice were intraperitoneally injected with 6, 12, and 18 mg/kg of complex (2), respectively, for 12 days. • EAC group: Mice were intraperitoneally injected by a single dose of 2.5 × 10^6 viable Ehrlich ascites carcinoma (EAC) cells in PBS. In brief, EAC cells were withdrawn from the EAC mouse’s intraperitoneal cavity, washed, and centrifuged three times with sterile saline. Then, the pellets were suspended in sterile PBS and counted by the trypan blue exclusion assay, which confirmed that the viability of the cells was 98%. • I, II, and III treated groups: Firstly, 30 healthy mice were intraperitoneally injected with a single dose of 2.5 × 10^6 viable EAC cells. After one day; the mice were divided into I, II, and III treated groups (10 mice each group), intraperitoneally injected with 6, 12, and 18 mg/kg Ru(III) complex, respectively, for 12 days.
# (§2) The animals were monitored for EAC growth by measuring abdominal size. At the end of the experiment all animals were fasted overnight then sacrificed. Serum samples were collected to study the biological parameters such as liver and kidney function as well as antioxidant enzyme activity. Liver samples from each group were frozen immediately in liquid nitrogen for molecular analysis.
# Liver function tests. Serum GPT and GOT activities were measured by the method of Murray with a standard kit. The enzyme activities were estimated by measuring the decrease in absorbance of NADH at 340 nm. Bilirubin concentration was estimated by the colorimetric method of Kaplan et al.. Albumin concentration was measured colorimetrically by the color change of bromocresol from yellow-green to green-blue.
# Kidney function tests. Creatinine was estimated colorimetrically by reacting with alkaline picrate forming a red complex. Urea was hydrolyzed enzymatically into ammonia which reacts with several compounds to form a green complex that can be measured colorimetrically. Uric acid was estimated by the enzymatic method of Schultz.
# Bcl2 gene expression = assay: Real-time qPCR of liver tissue, Bcl2; type: in vivo; conditions: liver tissue of EAC-bearing mice, vs untreated
# Description: RNA was isolated from liver tissues using a RNeasy Mini kit. The integrity and purity of RNA were assessed by 1% agarose gel electrophoresis and nanodrop, respectively. The obtained RNA was reverse transcribed to yield cDNA using Quantiscript reverse transcriptase. Specific primers for Bax, caspase 3, and Bcl2 genes in addition to the housekeeping gene, β actin were designed by the Primer 3 web-based tool based on the published mice sequences (Table 5). Quantitative real-time PCR (qPCR) was performed using QuantiTect SYBR Green qPCR Master Mix in a StepOnePlus real-time PCR system and the melting curve condition and fold change calculation were done as previously described.
# SOD, GSH, CAT, TAC = assay: Oxidative stress markers in serum of EAC-bearing mice; type: in vivo
# Description: as §1, §2
# The SOD activity in serum samples was evaluated as described by Dechatelet et al.. GSH was assayed in serum samples by detection of a yellow colored product following a reaction with 5,5’-dithiobis(2-nitrobenzoic acid) (DTNB). The catalase activity was estimated according to Aebi. Total antioxidant capacity (TAC) was determined by the method of Koracevic et al..
# [3] = II treated 12 mg/kg i.p. 12 days
# [4] = III treated 18 mg/kg i.p. 12 days
# [5] = three treated groups vs untreated EAC group
structure (smiles),measurement,setting,value
"CS(C)=O.Nc1ccccc1-c1nc2ccccc2[nH]1.O.[Cl][Ru]([Cl])[Cl] [(2), [Ru(III)Cl3(DMSO)(Hapbim)]·H2O]",E1/2 (Ru(II)/Ru(III) redox couple),Cyclic voltammetry,−295 mV
same,toxicity on repeated dosing,"[1]; healthy mice, 6, 12 and 18 mg/kg i.p., until the 12th day",No weight loss or signs of toxicity
same,toxicity on repeated dosing,"[1]; healthy mice, 30 and 40 mg/kg i.p.",toxic after 3-5 days and all the animals were dead on the fifth day
same,DNA fragmentation,Caco2 cells,distinct DNA laddering
same,Albumin,[2]; I treated 6 mg/kg i.p. 12 days,0.9 ± 0.03 g/dL
same,Bilirubin,[2]; I treated 6 mg/kg i.p. 12 days,0.18 ± 0.03 mg/dL
same,Creatinine,[2]; I treated 6 mg/kg i.p. 12 days,0.7 ± 0.01 mg/dL
same,GOT,[2]; I treated 6 mg/kg i.p. 12 days,248 ± 15.6 ^a U/L
same,GPT,[2]; I treated 6 mg/kg i.p. 12 days,15.2 ± 0.7 U/L
same,Urea,[2]; I treated 6 mg/kg i.p. 12 days,34.5 ± 0.4 mg/dL
same,Uric Acid,[2]; I treated 6 mg/kg i.p. 12 days,2.6 ± 0.1 mg/dL
same,Albumin,[2]; [3],2.7 ± 0.3 g/dL
same,Bilirubin,[2]; [3],0.2 ± 0.03 mg/dL
same,Creatinine,[2]; [3],0.7 ± 0.1 mg/dL
same,GOT,[2]; [3],179 ± 10.8 U/L
same,GPT,[2]; [3],17.8 ± 0.6 U/L
same,Urea,[2]; [3],34.2 ± 0.6 mg/dL
same,Uric Acid,[2]; [3],2.7 ± 0.1 mg/dL
same,Albumin,[2]; [4],2.6 ± 0.1 g/dL
same,Bilirubin,[2]; [4],0.18 ± 0.02 mg/dL
same,Creatinine,[2]; [4],1 ± 0.1 ^a mg/dL
same,GOT,[2]; [4],145 ± 39.3 U/L
same,GPT,[2]; [4],31.9 ± 7.8 U/L
same,Urea,[2]; [4],33.3 ± 1.2 mg/dL
same,Uric Acid,[2]; [4],2.8 ± 0.1 mg/dL
same,Bcl2 gene expression,Bcl2 gene expression,significant dose-dependent reduction
same,SOD levels,"SOD, GSH, CAT, TAC; I (6 mg/kg), II (12 mg/kg), III (18 mg/kg) treated groups vs untreated EAC group",elevated
same,CAT levels,"SOD, GSH, CAT, TAC; [5]",increased
same,GSH levels,"SOD, GSH, CAT, TAC; [5]",increased
same,total antioxidant capacity (TAC),"SOD, GSH, CAT, TAC; three treated groups vs untreated EAC group, p < 0.0001",significantly increased
